Assay results from US20040005601A1, “Methods for targeting quadruplex DNA” (priority 2002, published 2004).

What was measured:
CMYC [1] = assay: CMYC expression in Ramos Burkitt's lymphoma cell line (NHE III1 retained); format: cell-based
Method: (§1) The importance of the NHE III1 sequence in mediating the CMYC transcriptional inhibition by TMPyP4 was assessed. Two Burkitt's lymphoma cell lines with different translocation break points within the CMYC and immunoglobulin loci were analyzed, which are referred to as the Ramos cell line and the CA46 cell line. While the Ramos cell line retained the NHE III1 during the translocation, the CA46 cell line lost this element, together with the P1 and P2 promoters (FIG. 5A). When the NHE III1 element was deleted, as in the CA46 cell line, TMPyP4 had no effect on CMYC transcriptional activation.

G-quadruplex structures = settings: cited from earlier work
CMYC [2] = settings: cited from earlier work
[3] = system: Pu27 chair quadruplex (CMYC NHE III1); assay: Taq polymerase stop assay at 60° C. with Pu27 insert template; format: biochemical
Method: The same wild-type and mutant sequences of the Pu27 were used in a Taq polymerase stop assay, which was described in Han et al., Nucl. Acids Res. 27: 537-542 (1999). This assay is a modification of that used by Weitzmann et al., J. Biol. Chem. 271, 20958-20964 (1996), and is also described below. A reaction mixture of template DNA (77-mer with a Pu27 or mutant Pu27 insert) (50 nM), Tris.HCl (50 mM), MgCl2 (10 mM), DTT (0.5 mM), EDTA (0.1 mM), BSA (60 ng), and 5′-end-labeled 18-mer primer (˜18 nM) was heated to 90° C. for 5 min and allowed to cool to ambient temperature over 30 min. Taq Polymerase (1 μl) was added to the reaction mixture, and the reaction was maintained at a constant temperature (45° C. for the mutant Pu27 comparison; 60° C. for the porphyrin comparison) for 30 min. (For the porphyrin comparison, following cooling to ambient temperature, the requisite amount of porphyrin solution was added to the reaction mixture and left at ambient temperature for 30 min prior to the addition of polymerase.) Following the addition of 10 μl stop buffer (formamide [20 ml], 1 M NaOH [200 μl], 0.5 M EDTA [400 μl], 10 mg bromophenol blue), the DNA fragments were separated with a sequencing gel (12%) and visualized on a phosphorimager. Adenine sequencing (indicated by “A” at the top of the gel) was performed using double-stranded DNA Cycle Sequencing System from Life Technologies. The general sequence for 77-mer template strands was TCCAACTATGTATAC-INSERT-[…], and the 1 8-mer primer had the sequence TAATACGACTCACTATAG.
To further determine whether this selectivity of TMPyP4 versus TMPyP2 for the chair conformation correlated with an effect on CMYC transcription, a Taq polymerase stop assay was performed at an elevated temperature (60° C.) to partially destabilize the arresting quadruplex structure in the presence of increasing concentrations of TMPyP2 and TMPyP4. […] This is in agreement with the differential effects of the two compounds on CMYC expression in vitro and sensitivity in vivo to tumors that overexpress CMYC (MX-1 and PC-3).

RET = RET RNA expression in MiaPaCa cells (RT-PCR); format: cell-based, human; settings: for downregulation of RET RNA expression: IC70 concentration
Method: The effects of two test molecules also were assessed for the RET quadruplex. MiaPaCa-2 (human pancreatic tumor) were obtained from ATCC and were cultured at 37° C./5% CO2 in RPMI medium (Cellgro) with 10% fetal bovine serum (FBS), 50 U/ml penicillin G sodium, and 50 U/ml streptomycin sulfate (Gibco/BRL). Cells were treated with TMPyP4 and telomestatin (for the latter molecule, see, e.g., Shin-ya et al., J. Am. Chem. Soc. 123:1262 (2001)) when they reached ˜50% confluency. MiaPaCa cells were first washed with 5 ml of sterile phosphate-buffered saline (PBS, Fisher Scientific). The PBS was aspirated from the cells by vacuum, and replaced with 5 ml of Opti-MEM medium (Gibco-BRL) containing 6 μl Lipofectin (Invitrogen). Compounds then were added to the medium. Cells were allowed to grow at 37° C./5% CO2 for 6 hours to allow for transfection, and the medium was replaced with normal growth medium. […] The trypsin was neutralized with an equal volume of culture medium, the cells were then pelleted from this mixture by centrifugation at 500×gravity, the supernatant was aspirated, and the pellet was washed in PBS, recentrifuged, and frozen at −80° C.
RET RNA then was extracted from the cells. Cell pellets were thawed and resuspended in 400 μl of a buffer from a commercially available kit (i.e., Buffer RA1 from the NucleoSpin RNA II Kit (Clontech)). Total cellular RNA extraction was performed according to the manufacturer's protocol. Reverse transcription was performed to convert mRNA (i.e., polyadenylated RNA) to cDNA, and RET-specific primers were used in PCR to amplify RET message.

RET quadruplex [4] = assay: Stabilization of RET quadruplex structure (polymerase arrest / chemical footprinting); format: biochemical
Source text: (§2) Nucleic acids in a chair conformation often have similar but not identical structures when compared to one another and differences can manifest in loop size and nucleotide sequence, quadruplex geometry, quadruplex stability, the number of alternative chair structures for a given nucleotide sequence, and chemical reactivity, and binding of other molecules. Polymerase arrest assays and chemical footprinting studies applied to the CMYC chair quadruplex structure as described hereafter also were applied to nucleotide sequences upstream of the PDGFA and RET genes. It was determined that the NHE regions 5′ of the RET and PDGFA genes formed chair quadruplex structures that regulated transcription. FIG. 6A depicts a generalized quadruplex chair structure formed in the CMYC, PDGFA, and RET regulatory regions. In this chair structure, CMYC and RET have two stable tetrads and PDGFA has three stable tetrads. The N1 loop for CMYC is TG, for RET is GCG, and for PDGFA is CG. The N2 loop for CMYC is GAG, for RET is GCG, and for PDGFA is GCG. The N3 loop for CMYC is TG, for RET is GCG, and for PDGFA is CG (form A) or AG (form B). The different forms of the PDGFA quadruplex are depicted in FIG. 6C and the RET quadruplex structure is depicted in FIG. 6B. […]

Pu27 chair G-quadruplex = assay: Porphyrin photocleavage of Pu27 chair quadruplex; format: binding; settings: exposure to light
Source text: The two quadruplex conformations of Pu27 were contacted with compounds known to bind quadruplex structures. Specifically, the two conformations were contacted with TMPyP4 and TMPyP2 (FIG. 4A) to further confirm the biologically relevant quadruplex conformation (FIGS. 4B or 4C). It has been shown that both TMPyP4 and TMPyP2 catalyze the oxidation of DNA upon exposure to light, which results in DNA strand breakage in proximity to the binding sites (Han et al., J. Am. Chem. Soc. 123: 8902-8913 (2001)).
An identical cleavage pattern was produced by both compounds for the basket quadruplex (FIG. 4B). DNA damage was centered on the constituent guanines of the six-base bridging loop, inferring that both porphyrins are able to bind to this region, but in a nonspecific way that is neither intercalating nor end-stacking (FIG. 4A).

CMYC [5] = assay: CMYC transcription in CA46 Burkitt's lymphoma cell line (NHE III1 deleted); format: cell-based; settings: NHE III1 element deleted
Method: as §1

CMYC quadruplex = assay: Stabilization of CMYC quadruplex structure (polymerase arrest / chemical footprinting); format: biochemical
Source text: as §2

PDGFA quadruplex = assay: Stabilization of PDGFA quadruplex structure (polymerase arrest / chemical footprinting); format: biochemical
Source text: as §2

RET quadruplex [6] = assay: Photo-induced cleavage of the RET quadruplex; format: binding
CMYC [7] = assay: CMYC expression in MiaPaCa cells; format: cell-based, human; settings: 100 μM

For `C[n+]1ccccc1-c1c2nc(c(-c3cccc[n+]3C)c3ccc([nH]3)c(-c3cccc[n+]3C)c3ccc([nH]3)c(-c3cccc[n+]3C)c3nc1C=C3)C=C2` [TMPyP2], the “effect on CMYC expression” value (CMYC [1]) is listed as “not”, the “binding to G-quadruplex structures” value (G-quadruplex structures) is listed as “bound with less affinity” and the “effect on CMYC transcription and protein expression” value (CMYC [2]) is listed as “not”. For the same molecule, the “stabilization of the quadruplex arrest site” value ([3]; up to 20 μM compound, 60° C.) was “only modestly stabilized”.
For `C[n+]1ccc(-c2c3nc(c(-c4cc[n+](C)cc4)c4ccc([nH]4)c(-c4cc[n+](C)cc4)c4ccc([nH]4)c(-c4cc[n+](C)cc4)c4nc2C=C4)C=C3)cc1` [TMPyP4], the “downregulation of RET” value (RET; 100 μM) was “did not significantly downregulate”, the “stabilization of RET quadruplex structure” value (RET quadruplex [4]) was “not the RET quadruplex” and the “effect on CMYC expression” value (CMYC [1]) was “lowered CMYC expression”. For the same molecule, the “photocleavage pattern of chair G-quadruplex” value (Pu27 chair G-quadruplex) was “specific cleavage pattern”, the “binding to G-quadruplex structures” value (G-quadruplex structures) was “able to bind” and the “effect on CMYC transcriptional activation” value (CMYC [5]) was “no effect”. For the same molecule, the “stabilization of CMYC quadruplex structure” value (CMYC quadruplex) was “stabilized”, the “stabilization of PDGFA quadruplex structure” value (PDGFA quadruplex) was “stabilized” and the “binding site on RET quadruplex from photo-induced cleavage” value (RET quadruplex [6]) was “binds above and below the two stable tetrads”. The “effect on CMYC transcription and protein expression” value (CMYC [2]) was “lowered”, the “polymerase arrest at quadruplex arrest site” value ([3]; 0.5 μM compound, 60° C.) was ~65% and the “polymerase arrest at quadruplex arrest site” value ([3]; 5 μM compound, 60° C.) was “virtually total arrest”. For the same molecule, the “conformation of Pu27 stabilized” value ([3]; chair versus basket) was “stabilizes the chair conformation over the basket conformation” and the “downregulation of CMYC” value (CMYC [7]) was “about 50%”.
In the case of `Cc1oc2nc1-c1nc(co1)-c1nc(co1)-c1nc(co1)-c1nc(co1)-c1nc(co1)C1=NC(CS1)c1nc-2c(C)o1` (centres unmarked) [telomestatin], the “downregulation of RET RNA expression” value (RET; after 48 hours) is reported as “at least 50%” and the “downregulation of RET RNA expression” value (RET; after 72 hours) is reported as “at least 50%”.
